Results on five molecules are retold here after patent US10086039B2, “Lamin A, an activator of longevity/anti-aging SIRT1 protein” (THE UNIVERSITY OF HONG KONG, priority 2012, dated 2018).

One data set relates to Zmpste24−/− HSCs. As to the kind of experiment: ROS level in freshly isolated HSCs (DCF-DA, FACS). The format is in vivo, mouse. The note with it: NAC 1 mg/ml in drinking water; elevated in Zmpste24−/− HSCs. On the procedure:
(§1) Zmpste24^−/− mice have been described previously (Pendas et al., 2002). Mouse experimentation was performed in accordance with the guidelines of the Committee on the Use of Live Animals in Teaching and Research (CULATR) at the University of Hong Kong. New-born Zmpste24^−/− mice and wild-type controls were fed with resveratrol (20 μg/ml) or N-acetyl Cysteine (1 mg/ml) in drinking water. The survival of resveratrol-treated, NAC-treated, or vehicle-treated Zmpste24^−/− mice was recorded and their body weight was monitored weekly. The trabecular bone organization and bone mineral density were determined by micro-CT. The survival rate was analyzed by Kaplan-Meier method and statistical comparison was performed by Log-rank (Mantel-Cox) Test.
To purify HSCs, red blood cells were lysed using NH4Cl before surface-marker staining, and HSCs were then sorted with a BD FACSVantage SE. Sorted HSCs were incubated with 5 μM DCF-DA at 37° C. for 30 min and analyzed by FACS at 488-nm excitation and 525-nm emission to determine the ROS level.

The subject of data set [1] is Zmpste24−/− mice. As to the kind of experiment: HSC population in bone marrow of treated Zmpste24−/− mice (FACS). The format is in vivo, mouse. The note with it: NAC 1 mg/ml in drinking water. The procedure: as §1, with “Zmpste24^-/-” for “Zmpste24^−/−”, “([…]” for “(Pendas”, “Test. To analyze hematopoietic stem cells, mononucleated cells were collected by flushing femurs and tibias with staining medium (HBSS supplemented with 2% FBS) and stained with biotin-coupled lineage markers, Biotin-Flt3, PE-Sca-1, APC-c-Kit, and then SAv-PerCP. FACS profile analyses were performed using a BD FACSCalibur.” for “Test.”

Data set [2] relates to Zmpste24−/− mice. Nature of the data set: Survival and body weight of Zmpste24−/− mice treated via drinking water. Type of data set: in vivo, mouse. Particulars: NAC 1 mg/ml in drinking water. On the procedure: as §1
Briefly, resveratrol was supplemented at a concentration of 20 μg/ml in drinking water. Four months after treatment, BMSCs were collected for examination and comparison between resveratrol-treated and vehicle-treated Zmpste24^−/− mice.

Data set [3] relates to Zmpste24−/− mice. As to the kind of experiment: BMSC colony-forming efficiency after in vivo treatment of Zmpste24−/− mice. Also on record: species or system mouse. The note with it: NAC 1 mg/ml in drinking water. The procedure:
as §1
Bone marrow stromal cells were isolated and cultured according to modified protocol (Enumeration and Expansion of Mouse Mesenchymal Progenitor Cells Using MESENCUILT®, Stemcell Technologies, Canada). Briefly, bone marrow cells were flushed out from femurs and tibias with α-MEM (Invitrogen, Carlsbad, Calif., USA) supplemented with 20% FBS, and plated in petri dishes. Non-adherent cells were removed on day 3 and medium was replaced every 3 days. […] Colonies containing more than 50 cells were counted. BMSC colony forming efficiency was calculated as number of colonies formed by […] bone marrow nucleated cells. […]

Data set [4] has as its target T1, SIRT1 (Homo sapiens, UniProt Q96EB6).
T1 sequence (Q96EB6 1-747): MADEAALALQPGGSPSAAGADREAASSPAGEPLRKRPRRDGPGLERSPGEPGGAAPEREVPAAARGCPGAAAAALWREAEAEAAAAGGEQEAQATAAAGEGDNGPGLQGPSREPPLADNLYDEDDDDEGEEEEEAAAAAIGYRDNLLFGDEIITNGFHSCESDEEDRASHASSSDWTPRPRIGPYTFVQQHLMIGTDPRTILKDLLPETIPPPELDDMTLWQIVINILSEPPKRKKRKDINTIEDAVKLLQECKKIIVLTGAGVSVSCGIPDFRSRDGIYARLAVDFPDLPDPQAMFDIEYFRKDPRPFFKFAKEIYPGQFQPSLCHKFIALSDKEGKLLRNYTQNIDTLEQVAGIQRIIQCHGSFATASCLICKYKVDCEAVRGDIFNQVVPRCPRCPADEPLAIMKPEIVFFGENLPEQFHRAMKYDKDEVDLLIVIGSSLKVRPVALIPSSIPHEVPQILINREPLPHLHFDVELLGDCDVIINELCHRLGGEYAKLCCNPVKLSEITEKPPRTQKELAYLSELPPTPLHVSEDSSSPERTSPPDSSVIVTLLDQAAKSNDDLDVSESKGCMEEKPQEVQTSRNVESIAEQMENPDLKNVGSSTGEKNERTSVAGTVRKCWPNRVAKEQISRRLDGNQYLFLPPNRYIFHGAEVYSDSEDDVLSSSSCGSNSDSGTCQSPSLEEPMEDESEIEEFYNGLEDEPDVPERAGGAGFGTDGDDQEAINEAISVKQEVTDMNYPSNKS
Particulars: Beher 2009; Dai 2010; Pacholec 2010; cited from earlier work.

Data set [5] has as its target T1, SIRT1. As to the kind of experiment: BIOMOL SIRT1 Fluorimetric Drug Discovery Kit (BSDK) deacetylase assay on fluorophore-conjugated acetyl p53 peptide. Type of data set: biochemical. Details: purchased Biomol (Hamburg, Germany). On the procedure: (§2) SIRT1 deacetylation assay on fluorophore-conjugated synthetic p53 peptide was performed with SIRT1 Fluorimetric Drug Discovery Kit (Biomol, Hamburg, Germany) according to the manufactory's instruction. Cells were fractionated as described above except that protease inhibitors were NOT included and the nuclear matrix fraction was suspended into the assay buffer provided by the supplier. Different cell fractions or recombinant human lamin A (rhLamin A, Diatheva, Italy) were added in the reaction mix of SIRT1 Fluorimetric Drug Discovery Kit, incubated for 20 min at 37° C., and then the reaction was stopped and fluorescent signal was detected. SIRT1 deacetylase activity on native target was assayed using SIRT1 assay Kit from Sigma (USA). Constructs encoding FLAG-p53 and HA-p300 were co-transfected into HEK293 cells; FLAG-p53 was immunoprecipitated by anti-FLAG M2 Agarose (Sigma) followed by elution with FLAG peptide (Sigma). Purified acetyl FLAG-p53 was incubated with recombinant human SIRT1 (rhSIRT1) and NAD+ for 30 min at 37° C., in the presence or absence of rhLamin A or resveratrol. The acetylation level of FLAG-p53 was determined by Western blotting with pan anti acetyl lysine antibodies.
To test this hypothesis, in vitro deacetylase activity of rhSIRT1 by a BIOMOL® SIRT1 Fluorimetric Drug Discovery Kit (BSDK) was quantified in the presence or absence of NM derived from wild-type or Zmpste24−/− BMSCs.
This Example further investigates whether lamin A acts as an activator of SIRT1. In mammalian cells, lysine acetyltransferase p300 and SIRT1 mediate the acetylation and deacetylation of p53 on residue K382 (Gu and Roeder, 1997). BSDK utilizes fluorophore-conjugated acetyl p53 peptide as target (see Materials and Methods).

The target in data set [6] is T1, SIRT1. As to the kind of experiment: SIRT1 deacetylation assay on native full-length acetyl FLAG-p53 (Western blotting, anti-acetyl lysine). Type of data set: biochemical. Also on record: purchased Biomol (Hamburg, Germany). The procedure:
as §2
To further test the effect of rhLamin A on the native target of SIRT1, acetyl p53 was purified by anti-FLAG immunoprecipitation in HEK293 cells ectopically expressing FLAG-p53 and p300, and SIRT1 deacetylation assay was performed as described in Materials and Methods.

In data set [7] the target is T2, rhSIRT1 binding to rhLamin A (Homo sapiens, UniProt Q96EB6).
T2 construct: purchased Diatheva, Italy (rhLamin A)
T2 sequence (Q96EB6 1-747): T1 sequence (Q96EB6 1-747)
T2 sequence (P02545 1-664 partner): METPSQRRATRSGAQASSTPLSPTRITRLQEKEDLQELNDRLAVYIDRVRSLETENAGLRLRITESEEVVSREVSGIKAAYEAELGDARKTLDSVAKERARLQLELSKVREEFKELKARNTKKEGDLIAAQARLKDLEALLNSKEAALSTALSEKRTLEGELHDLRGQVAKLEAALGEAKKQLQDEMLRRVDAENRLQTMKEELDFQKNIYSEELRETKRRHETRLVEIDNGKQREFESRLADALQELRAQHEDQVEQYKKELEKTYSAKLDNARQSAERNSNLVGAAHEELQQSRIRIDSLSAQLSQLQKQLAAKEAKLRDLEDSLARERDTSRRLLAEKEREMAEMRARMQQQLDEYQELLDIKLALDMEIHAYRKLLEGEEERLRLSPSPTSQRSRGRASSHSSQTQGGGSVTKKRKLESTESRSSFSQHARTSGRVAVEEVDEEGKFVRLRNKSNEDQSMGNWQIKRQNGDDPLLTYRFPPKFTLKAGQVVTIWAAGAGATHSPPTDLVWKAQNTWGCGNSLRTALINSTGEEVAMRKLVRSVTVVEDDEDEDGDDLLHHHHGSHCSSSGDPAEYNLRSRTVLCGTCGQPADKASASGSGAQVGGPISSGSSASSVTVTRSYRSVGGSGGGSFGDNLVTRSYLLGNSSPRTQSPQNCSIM
As to the kind of experiment: Pull-down of rhSIRT1 with rhLamin A in test tube (anti-lamin A immunoprecipitation). The note with it: in a test tube. The procedure:
For co-immunoprecipitation, cells were lysed into pre-chilled RIPA buffer containing 300 mM or 500 mM NaCl and protease inhibitors. Primary antibodies or appropriate control IgGs were added to the lysate and incubated for 2 h on a rocking platform at 4° C. before Agarose beads were added and incubated O/N. The beads were washed twice with RIPA buffer, resuspended into Laemmli buffer and boiled, and protein suspension was collected by centrifugation and stored for further analysis.
Consistently, ectopic EGFP-SIRT1 and DsRed-lamin A co-existed in the nuclear interior (FIG. 1D). This interaction seems specific to nuclear SIRT1 as neither cytoplasmic SIRT1 nor mitochondrial SIRT5 was detected in the anti GFP-lamin A immunoprecipitates (FIG. 6C). In addition, SIRT1 physically interacts with lamin A as recombinant human SIRT1 (rhSIRT1) was pulled down by recombinant human lamin A (rhLamin A) in a test tube (FIG. 1E).

On to `CC(=O)N[C@@H](CS)C(=O)O` [N-acetyl Cysteine], for which the “ROS level in HSCs” value in the data set with Zmpste24−/− HSCs is given as “rescued ROS level”. For the same molecule, in the data set on Zmpste24−/− mice [1], the “decline in HSCs” value is listed as “rescued”. The lifespan entry in the data set on Zmpste24−/− mice [2] is “extended lifespan to a similar extent as resveratrol did”. Besides, the “decline in BMSCs” value in the data set with Zmpste24−/− mice [3] is “rescued”.
For the molecule `O=C(Nc1ccccc1-c1cn2c(CN3CCNCC3)csc2n1)c1cnc2ccccc2n1` [SRT1720], the “SIRT1 activation towards full-length native target proteins, including p53 and PGC-1α” value at SIRT1 [4] was “do not confer any SIRT1 activation”.
On to `Cc1ccc(C(=O)Nc2ccc(S(=O)(=O)O)c3cc(S(=O)(=O)O)cc(S(=O)(=O)O)c23)cc1NC(=O)c1cccc(NC(=O)Nc2cccc(C(=O)Nc3cc(C(=O)Nc4ccc(S(=O)(=O)O)c5cc(S(=O)(=O)O)cc(S(=O)(=O)O)c45)ccc3C)c2)c1` [Suramin], for which the “Lamin A-stimulated SIRT1 deacetylase activity” value at SIRT1 [5] (SIRT1 inhibitor added) is “completely abolished”.

B1: LA-80: synthetic peptide of carboxyl 80 aa of lamin A (peptide)
peptide: GSHCSSSGDPAEYNLRSRTVLCGTCGQPADKASASGSGAQVGGPISSGSSASSVTVTRSYRSVGGSGGGSFGDNLVTRSY
With B1, the “activating potential on SIRT1 towards fluorophore-conjugated synthetic peptide (Ac-Arg-His-Lys-LysAc-AMC)” value in the data set with SIRT1 [5] (compared with lamin A) is reported as “much higher activating potential”. Moreover, in the data set with SIRT1 [6] (compared with lamin A), the “activating potential on SIRT1 towards full-length acetylated FLAG-p53 protein” value is “much higher activating potential”.

B2: rhLamin A: recombinant human lamin A (rhLamin A, Diatheva, Italy) (protein, listed as Homo sapiens)
chain: T2 sequence (P02545 1-664 partner)
On to B2, for which the “deacetylase activity of rhSIRT1 on acetyl p53 peptide” value with SIRT1 [5] (in the presence of rhLamin A, molar ratio rhLamin A to rhSIRT1 0.5, 1.0, 2.0, 4.0) was “increased in a dose-dependent manner”. In addition, the “rhSIRT1 pulled down by rhLamin A” value in data set [7] is “pulled down”. In addition, the “decrease in FLAG-p53 acetylation level” value with SIRT1 [6] (rhLamin A-rhSIRT1 complex compared with rhSIRT1 only) is “around 20%”.
